Data reported in patent US9980943B2, “Methods of treating muscular dystrophy” (BOARD OF REGENTS OF THE NEVADA SYSTEM OF HIGHER EDUCATION, …, priority 2013, dated 2018).

Tests used:
Assay type in all cases: cell-based, mouse
[1] = system: β-galactosidase in CMV-LacZ C2C12 myotubes; assay: CMV-LacZ secondary screen in C2C12 myotubes (β-Gal stabilizing assay); conditions: C2C12 CMV-LacZ myotubes, fold relative to DMSO
Procedure, shortened: (§1)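 β-Gal level was the read-out, measured in a clonal C2C12 line expressing LacZ from a CMV promoter. Dose-response curves used six concentrations, 0.5 μM up to 40 μM, with duplicate points.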

[2] = system: α7 integrin (LacZ reporter in α7+/LacZ myotubes); assay: Myotube α7 integrin FDG assay (Burkin assay in myotubes, 96-well); conditions: myotubes
[3] = system: α7 integrin (LacZ reporter in α7βgal+/− myoblasts); assay: Myoblast α7+/LacZ integrin FDG assay (Burkin assay in myoblasts, 96-well); conditions: α7+/LacZ myoblasts, 96-well
[4] = system: β-galactosidase in CMV-LacZ C2C12 myoblasts; assay: CMV-LacZ secondary screen in C2C12 myoblasts (β-Gal stabilizing assay); conditions: CMV-LacZ C2C12 myoblasts
Procedure, shortened: as §1

Row | SMILES | CMV-LACZ in Myotubes, signal relative to DMSO ([1]; 0.5 uM) | CMV-LACZ in Myotubes, signal relative to DMSO ([1]; 1 uM) | CMV-LACZ in Myotubes, signal relative to DMSO ([1]; 5 uM) | CMV-LACZ in Myotubes, signal relative to DMSO ([1]; 10 uM) | CMV-LACZ in Myotubes, signal relative to DMSO ([1]; 20 uM) | CMV-LACZ in Myotubes, signal relative to DMSO ([1]; 40 uM) | Burkin Assay in Myotubes, α7 integrin LacZ reporter signal relative to DMSO ([2]; 0.5 uM) | Burkin Assay in Myotubes, α7 integrin LacZ reporter signal relative to DMSO ([2]; 1 uM) | Burkin Assay in Myotubes, α7 integrin LacZ reporter signal relative to DMSO ([2]; 5 uM) | Burkin Assay in Myotubes, α7 integrin LacZ reporter signal relative to DMSO ([2]; 10 uM) | Burkin Assay in Myotubes, α7 integrin LacZ reporter signal relative to DMSO ([2]; 20 uM) | Burkin Assay in Myotubes, α7 integrin LacZ reporter signal relative to DMSO ([2]; 40 uM) | Burkin Assay in Myoblasts, signal relative to DMSO ([3]; 0.5 uM) | Burkin Assay in Myoblasts, signal relative to DMSO ([3]; 1 uM) | Burkin Assay in Myoblasts, signal relative to DMSO ([3]; 5 uM) | Burkin Assay in Myoblasts, signal relative to DMSO ([3]; 10 uM) | Burkin Assay in Myoblasts, signal relative to DMSO ([3]; 20 uM) | Burkin Assay in Myoblasts, signal relative to DMSO ([3]; 40 uM) | CMV-LACZ in Myoblasts (β-galactosidase activity relative to DMSO) ([4]; 0.5 uM) | CMV-LACZ in Myoblasts (β-galactosidase activity relative to DMSO) ([4]; 1 uM) | other results
1 | CC(NC(=O)c1ccc(C(C)(C)C)cc1)C(c1cccs1)N1CCOCC1 (stereo not drawn) [MLS001167281-01] | 1.0663 | 1.0789 | 0.8948 | 0.9727 | 1.1089 | 0.9722 | 1.063 | 1.054 | 1.074 | 1.142 | 0.8293 | 0.8345 | 1.089 | 1.18 | 1.075 | 0.9776 | 0.8869 | 0.8618 | 1.0114 | 1.1289 | CMV-LACZ in Myoblasts (β-galactosidase activity relative to DMSO) ([4]; 5 uM): 0.9684; CMV-LACZ in Myoblasts (β-galactosidase activity relative to DMSO) ([4]; 10 uM): 1.1951; CMV-LACZ in Myoblasts (β-galactosidase activity relative to DMSO) ([4]; 20 uM): 0.9256; CMV-LACZ in Myoblasts (β-galactosidase activity relative to DMSO) ([4]; 40 uM): 0.7467
2 | Cc1ccc(Cn2nnc3c(=O)[nH]c(C4CCCN(C(=O)c5ccco5)C4)nc32)cc1 (stereo not drawn) [MLS001217212-01] | 1.0190 | 0.9610 | 0.9795 | 1.0832 | 1.1842 | 1.0105 | 0.8233 | 0.8386 | 0.8831 | 0.8772 | 0.7663 | 0.7366 | 1.095 | 1.178 | 0.9785 | 0.9933 | 0.9967 | 1.064 | 1.1804 | 0.9179 | CMV-LACZ in Myoblasts (β-galactosidase activity relative to DMSO) ([4]; 5 uM): 1.0711; CMV-LACZ in Myoblasts (β-galactosidase activity relative to DMSO) ([4]; 10 uM): 1.0626; CMV-LACZ in Myoblasts (β-galactosidase activity relative to DMSO) ([4]; 20 uM): 1.1137; CMV-LACZ in Myoblasts (β-galactosidase activity relative to DMSO) ([4]; 40 uM): 0.9459
